Assay [1] has as its system Klebsiella pneumoniae: Ciprofloxacin-resistant isolate, expresses ESBL, clinical isolate (KP-3700). The experiment in a line: MIC determination (CLSI), KP-3700. Type of assay: cell-based. As to conditions: overnight incubation, lower of duplicate values. As for the experimental part:
(§1) The in vitro antibacterial activity of compounds described in the Examples was evaluated by minimum inhibitory concentration (MIC) testing according to Clinical and Laboratory Standards Institute (CLSI) Guidelines. See: Clinical and Laboratory Standards Institute. Methods for Dilution Antimicrobial Susceptibility Tests for Bacteria that Grow Aerobically; Approved Standard-Eighth Edition. CLSI document M7-A8 [ISBN 1-56238-689-1]. Clinical and Laboratory Standards Institute, 940 West Valley Road, Suite 1400, Wayne, Pa. 19087-1898 USA, 2006; also Clinical and Laboratory Standards Institute. Performance Standards for Antimicrobial Susceptibility Testing; Twentieth Informational Supplement. CLSI document M100-S20 [ISBN1-56238-716-2]. Clinical and Laboratory Standards Institute.
(§2) The MIC determination is a standard laboratory method for evaluating the antibacterial activity of a compound. The MIC represents the lowest drug concentration that inhibits visible growth of bacteria following overnight incubation. […] Typically, the drug concentration range is broken down into 2-fold increments (e.g. 0.06 μg/mL, 0.12 μg/mL. 0.25 μg/mL, 0.50 μg/mL, 1.0 μg/mL, etc.) and the various drug concentrations are all individually incubated overnight with approximately the same number of bacteria. The MIC is then determined by visually inspecting the drug effect at each concentration, and identifying the lowest drug concentration that has inhibited bacterial growth as compared to the drug free control. Typically, bacteria continue to grow at drug concentrations lower than the MIC and don't grow at concentrations at and above the MIC.
(§3) The MIC values described in Tables 2 and 3 below were derived from assays wherein each test compound was evaluated in duplicate. In cases where the duplicate values varied by 0-2-fold, the lower of the two values was reported below. Generally speaking, if the duplicate values varied by more than 2-fold, the assay was considered non-valid and was repeated until the variation between duplicate runs was ≦2-fold. In line with the CLSI guidelines referred to above, both control organisms and reference compounds were utilized in each MIC assay to provide proper quality control. MIC values generated with these control organisms and reference compounds were required to fall within a defined range for the assay to be considered valid and be included herein. Those skilled in the art will recognize that MIC values can and do vary from experiment to experiment. Generally speaking, it should be recognized that MIC values often vary +/−2-fold from experiment to experiment. While a single MIC is reported for each compound and each microorganism, the reader should not conclude that each compound was only tested once. Several of the compounds were subjected to multiple tests. The data reported in Tables 2 and 3 is reflective of the compounds relative activity and different MICs may have been generated on these occasions in line with the guidelines described above.
(§4) The following bacterial strains were used in these MIC determinations:
(3) Klebsiella pneumoniae: Ciprofloxacin-resistant isolate, expresses extended-spectrum beta-lactamases (ESBL), clinical isolate, labeled as KP-3700 in Table 5.

Assay [2] relates to Escherichia coli EC-1: VOGEL, mouse virulent. The experiment in a line: MIC determination (CLSI), EC-1. It counts as cell-based. The conditions noted are these: for MIC: Escherichia coli, read-out: EC-1 (MIC). Here is the method:
as §1, §2, §3, §4
(2) Escherichia coli EC-1: VOGEL, mouse virulent labeled as EC-1 in Table 5;

Assay [3] concerns Pseudomonas aeruginosa UI-18: Wild-type (PA-7). The experiment in a line: MIC determination (CLSI), PA-7. Type of assay: cell-based. As to conditions: Pseudomonas aeruginosa UI-18 wild-type, overnight incubation, lower of duplicate values; for MIC: read-out: PA-7 (MIC). Here is the method: as §1, §2, §3, §4
(4) Pseudomonas aeruginosa UI-18: Wild-type, labeled as PA-7 in Table 5;

Assay [4] has as its target T1, Pseudomonas aeruginosa LpxC enzyme (Pseudomonas aeruginosa, UniProt P47205).
T1 construct: made in house; host or cells: E. coli
T1 sequence (P47205 1-303): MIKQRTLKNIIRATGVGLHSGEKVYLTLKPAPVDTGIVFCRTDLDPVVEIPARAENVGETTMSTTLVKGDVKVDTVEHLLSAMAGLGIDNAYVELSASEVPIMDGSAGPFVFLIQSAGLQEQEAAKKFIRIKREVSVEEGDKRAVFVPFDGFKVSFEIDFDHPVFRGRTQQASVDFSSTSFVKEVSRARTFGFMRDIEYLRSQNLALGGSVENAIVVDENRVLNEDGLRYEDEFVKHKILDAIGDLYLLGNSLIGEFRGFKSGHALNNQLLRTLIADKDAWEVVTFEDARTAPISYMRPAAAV
Kind of assay: IC50 assay, LpxC enzyme from P. aeruginosa (BioTrove RapidFire mass spectrometry). Type of assay: biochemical. As for the experimental part:
In order to assess the compounds biological activity, selected in-vitro assays were conducted on selected compounds of Formula I. One of the assays measured the compounds ability to disrupt the synthesis of lipopolysaccharide, LPS, which is a component of the outer membrane of Gram-negative bacteria. Disruption of this synthesis is lethal to the bacteria. The assay determined the compound's ability to inhibit LpxC, which is the first enzyme in the biosynthetic pathway for LPS (measured as IC50). Additionally, MICs (minimal inhibitory concentrations) were determined for several bacteria. The specific protocols are described below:
A) IC50 Assay, LpxC Enzyme from P. Aeruginosa Labeled as PA LpxC Enzyme IC50):
At the end of 1 hour, 5 ul of 1 N HCl was added to stop the enzyme reaction, the plates were centrifuged, and then processed with the BioTrove Rapidfire HTMS Mass Spectrometry System. A no-enzyme control was used in calculating the IC50 values from the percent conversion values.

Assay [5] concerns Acinetobacter baumannii/haemolyticus: Multidrug-resistant clinical isolate (AB-3167). The experiment in a line: MIC determination (CLSI), AB-3167. As to conditions: Acinetobacter baumannii/haemolyticus multidrug-resistant clinical isolate, overnight incubation, lower of duplicate values; for MIC: read-out: AB-3167 (MIC). It counts as cell-based. Here is the method:
as §1, §2, §3, §4
(1) Acinetobacter baumannii/haemolyticus: Multidrug-resistant clinical isolate labeled as AB-3167 in Table 5;

The mark [6] stands for this setting: P. aeruginosa LpxC enzyme 0.1 nM, 25° C., 1 hour, pH 8.0, read-out: PA: IC50.

pIC50: −log10 of the molar value. Converted amounts (≈) assume the structure as drawn. Where two headings read alike, the source gives them in different places.

As to “(2R)-4-[4-(2-fluoro-4-methoxyphenyl)-1H-1,2,3-triazol-1-yl]-N-hydroxy-2-methyl-2-(methylsulfonyl)butanamide [Example 22]”, the “KP-3700 (MIC)” value in assay [1] amounted to 32 µg/mL. In addition, in assay [2] (Escherichia coli EC-1 VOGEL, mouse virulent, overnight incubation, lower of duplicate values), the “EC-1 (MIC)” value is 4 µg/mL. Besides, the “PA-7 (MIC)” value in assay [3] turned out to be 2 µg/mL. Also, in assay [4] (setting [6]), the pIC50 is 8.92. Also, the “AB-3167 (MIC)” value in assay [5] is over 64.0 µg/mL.
As to `CC(CCn1cc(-c2cc(F)ccc2F)cn1)(C(=O)NO)S(C)(=O)=O` (stereo not shown) [Example 56, 4-[4-(2,5-difluorophenyl)-1H-pyrazol-1-yl]-N-hydroxy-2-methyl-2-(methylsulfonyl)butanamide], the “KP-3700 (MIC)” value in assay [1] is over 64.0 µg/mL. Moreover, the MIC in assay [2] was 32 µg/mL (≈ 85.7 µM); in assay [3], 8 µg/mL (≈ 21.4 µM); in assay [5], over 64 µg/mL. For the same compound, the pIC50 in assay [4] (setting [6]) is 8.17.
As to `C[C@@](CCn1cc(-c2ccc(Cl)c(F)c2)nn1)(C(=O)NO)S(C)(=O)=O` [Example 23, (2R)-4-[4-(4-chloro-3-fluorophenyl)-1H-1,2,3-triazol-1-yl]-N-hydroxy-2-methyl-2-(methylsulfonyl)butanamide], the “KP-3700 (MIC)” value in assay [1] came to 64 µg/mL. Also, the MIC is 8 µg/mL (≈ 20.5 µM) in assay [2], 2 µg/mL (≈ 5.12 µM) in assay [3] and over 64 µg/mL in assay [5]. In addition, in assay [4], the pIC50 was 9.04.
`CC(CCn1cc(-c2ccc(C#N)cc2)cn1)(C(=O)NO)S(C)(=O)=O` (stereo not shown) [Example 47, 4-[4-(4-cyanophenyl)-1H-pyrazol-1-yl]-N-hydroxy-2-methyl-2-(methylsulfonyl)butanamide]: the “KP-3700 (MIC)” value in assay [1] was over 64.0 µg/mL. In addition, the MIC in assay [2] was 64 µg/mL (≈ 177 µM); in assay [3], 4 µg/mL (≈ 11 µM); in assay [5], over 64 µg/mL. For the same compound, the pIC50 in assay [4] (setting [6]) was 8.94.
For `C[C@@](CCn1cc(C#N)cn1)(C(=O)NO)S(C)(=O)=O` [Example 7, (2R)-4-(4-cyano-1H-pyrazol-1-yl)-N-hydroxy-2-methyl-2-(methylsulfonyl)butanamide], in that order: over 64.0 µg/mL, over 64 µg/mL, over 64 µg/mL, over 64 µg/mL and 6.21.
Turning to `C[C@@](CCn1cc(-c2ccccc2)nn1)(C(=O)NO)S(C)(=O)=O` [Example 14, (2R)—N-hydroxy-2-methyl-2-(methylsulfonyl)-4-(4-phenyl-1H-1,2,3-triazol-1-yl)butanamide], the “KP-3700 (MIC)” value in assay [1] worked out at 32 µg/mL. Moreover, the MIC in assay [2] was 32 µg/mL (≈ 94.6 µM); in assay [3], 2 µg/mL (≈ 5.91 µM); in assay [5] it was over 64 µg/mL. In addition, the pIC50 in assay [4] is 9.07.
Consider `CC(CCn1cc(-c2ccc(C(F)(F)F)cn2)cn1)(C(=O)NO)S(C)(=O)=O` (stereo not shown) [Example 76, N-hydroxy-2-methyl-2-(methylsulfonyl)-4-{4-[5-(trifluoromethyl)pyridin-2-yl]-1H-pyrazol-1-yl}butanamide], for which, in assay [1], the “KP-3700 (MIC)” value was over 64.0 µg/mL. The MIC was over 64 µg/mL in assay [2], 64 µg/mL (≈ 157 µM) in assay [3] and over 64 µg/mL in assay [5]. For the same compound, the pIC50 in assay [4] (setting [6]) was 7.43.
Turning to `CC(CCn1cc(CSc2ccc(Cl)cc2)nn1)(C(=O)NO)S(C)(=O)=O` (stereo not shown) [Example 29, 4-(4-{[(4-chlorophenyl)sulfanyl]methyl}-1H-1,2,3-triazol-1-yl)-N-hydroxy-2-methyl-2-(methylsulfonyl)butanamide], in assay [1], the “KP-3700 (MIC)” value is over 64.0 µg/mL. The MIC in assay [2] is over 64 µg/mL; in assay [3], 32 µg/mL (≈ 76.4 µM); in assay [5], over 64 µg/mL. Further, in assay [4] (setting [6]), the pIC50 was 8.05.
For the compound `CC(CCn1cc(-c2cccc(C#N)c2)cn1)(C(=O)NO)S(C)(=O)=O` (stereo not shown) [Example 48, 4-[4-(3-cyanophenyl)-1H-pyrazol-1-yl]-N-hydroxy-2-methyl-2-(methylsulfonyl)butanamide], the “KP-3700 (MIC)” value in assay [1] is over 64.0 µg/mL. In addition, the MIC is over 64 µg/mL in assay [2], 64 µg/mL (≈ 177 µM) in assay [3] and over 64 µg/mL in assay [5]. The pIC50 in assay [4] (setting [6]) was 7.53.
On to `CC(CCn1cc(-c2ccc(Cl)cn2)cn1)(C(=O)NO)S(C)(=O)=O` (stereo not shown) [Example 54, 4-[4-(5-chloropyridin-2-yl)-1H-pyrazol-1-yl]-N-hydroxy-2-methyl-2-(methylsulfonyl)butanamide], for which, in assay [1], the “KP-3700 (MIC)” value was over 64.0 µg/mL. Also, the results for the MIC in assay [2], in assay [3] and in assay [5] were over 64 µg/mL, 16 µg/mL (≈ 42.9 µM) and over 64 µg/mL, respectively. Besides, in assay [4] (setting [6]), the pIC50 is 8.16.
With `CC(C)c1ccccc1SCc1cn(CCC(C)(C(=O)NO)S(C)(=O)=O)nn1` (stereo not shown) [Example 31, N-hydroxy-2-methyl-2-(methylsulfonyl)-4-[4-({[2-(propan-2-yl)phenyl]sulfanyl}methyl)-1H-1,2,3-triazol-1-yl]butanamide], the “KP-3700 (MIC)” value in assay [1] is over 64.0 µg/mL. Moreover, the MIC in assay [2], in assay [3] and in assay [5] was over 64 µg/mL in each case. Moreover, the pIC50 in assay [4] (setting [6]) is 6.52.
In the case of `CSc1cccc(OCc2cn(CCC(C)(C(=O)NO)S(C)(=O)=O)nn2)c1` (stereo not shown) [Example 36, N-hydroxy-2-methyl-4-(4-{[3-(methylsulfanyl)phenoxy]methyl}-1H-1,2,3-triazol-1-yl)-2-(methylsulfonyl)butanamide], in assay [1], the “KP-3700 (MIC)” value is over 64.0 µg/mL. Further, the minimal inhibitory concentration (MIC) was over 64 µg/mL in assay [2], 32 µg/mL (≈ 77.2 µM) in assay [3] and over 64 µg/mL in assay [5]. In addition, the pIC50 in assay [4] (setting [6]) is 8.19.
For the compound `Cc1cc(O)ccc1-c1cnn(CCC(C)(C(=O)NO)S(C)(=O)=O)c1` (stereo not shown) [Example 49, N-hydroxy-4-[4-(4-hydroxy-2-methylphenyl)-1H-pyrazol-1-yl]-2-methyl-2-(methylsulfonyl)butanamide], the “KP-3700 (MIC)” value in assay [1] was over 64.0 µg/mL. In addition, the MIC in assay [2], in assay [3] and in assay [5] was over 64 µg/mL each time. Also, the pIC50 in assay [4] (setting [6]) is 7.04.
With `Cc1ccccc1-c1cnn(CCC(C)(C(=O)NO)S(C)(=O)=O)c1` (stereo not shown) [Example 43, N-hydroxy-2-methyl-4-[4-(2-methylphenyl)-1H-pyrazol-1-yl]-2-(methylsulfonyl)butanamide], the “KP-3700 (MIC)” value in assay [1] is over 64.0 µg/mL. Moreover, the values for the MIC in assay [2], in assay [3] and in assay [5] were 32 µg/mL (≈ 91.1 µM), 16 µg/mL (≈ 45.5 µM) and over 64 µg/mL, respectively. Also, the pIC50 in assay [4] (setting [6]) is 7.95.

Source of the values: US8809333B2, “Imidazole, pyrazole, and triazole derivatives useful as antibacterial agents” (Pfizer Inc., priority 2011, dated 2014).
